The results in this text go back to ChEMBL document CHEMBL4043112, “Recent synthetic and medicinal perspectives of tryptanthrin” (Bioorg Med Chem, 2017).

In data set [1] the test system is Malassezia furfur. As to the kind of experiment: Antifungal activity against Malassezia furfur after 2 to 4 days by agar plate dilution method. The data set is classed as functional.
For data set [2], the system named is Staphylococcus aureus. As to the kind of experiment: Antibacterial activity against methicillin resistant Staphylococcus aureus after 24 hrs by agar plate dilution method. The data set is classed as functional.
Data set [3] relates to MCF7. The experiment in a line: Cytotoxicity against human wild-type MCF7 cells after 72 hrs. Type of data set: functional, cell-based. Particulars: MCF7, 72 h.
The species named for data set [4] is Homo sapiens. The experiment in a line: Inhibition of human DNA topoisomerase 2 ATPase activity at 200 mM by Topo-2 ATPase assay.
The species entered for data set [5] is Homo sapiens. The experiment in a line: Inhibition of human DNA topoisomerase 2-mediated decatenation of kinetoplast DNA at […] by kinetoplast DNA decatenation assay.
The species entered for data set [6] is Homo sapiens. As to the kind of experiment: Inhibition of human DNA topoisomerase 2 ATPase activity at 400 mM by Topo-2 ATPase assay.
The target in data set [7] is ATP-dependent translocase ABCB1 (Homo sapiens, UniProt P08183). The experiment in a line: Inhibition of MDR1 in human MCF7/ADR cells assessed as potentiation of verapamil-induced cytotoxicity by measuring cell growth (reference value: 78.2%). The data set is classed as cell-based. The arrangement: scale not given: the % may be the effect or the level left.
In data set [8] the test system is NCI/ADR-RES. The experiment in a line: Cytotoxicity against human MCF7/ADR cells after 72 hrs. The data set is classed as functional, cell-based.
The species named for data set [9] is Homo sapiens. As to the kind of experiment: Inhibition of human DNA topoisomerase 2 ATPase activity at 300 mM by Topo-2 ATPase assay.
Data set [10] relates to MCF7. As to the kind of experiment: Cytotoxicity against human wild-type MCF7 cells assessed as cell growth at 3 mM after 72 hrs relative to control. Type of data set: functional. The note with it: MCF7, 72 h, read-out: Activity.
Data set [11] deals with NCI/ADR-RES. The experiment in a line: Cytotoxicity against human MCF7/ADR cells assessed as cell growth at 3 mM after 72 hrs relative to control. The data set is classed as functional. Particulars: read-out: Activity.
In data set [12] the test system is NCI/ADR-RES. The experiment in a line: Cytotoxicity against human MCF7/ADR cells assessed as inhibition of cell proliferation at 10^-6 M after 5 days by MTT assay. Type of data set: functional. Particulars: 120 h. On the technique in general: Tetrazolium assays rely on reduction of a dye to a coloured formazan, in cell work by metabolically active cells.
Data set [13] relates to Rattus norvegicus. As to the kind of experiment: Anti-inflammatory activity in Wistar Han rat assessed as reduction in carrageenan-induced increase in infiltrating cells at 10 mg/kg, po administered 1 hr prior to carrageenan challenge by vital trypan blue staining-based microscopic method. The data set is classed as functional.
Data set [14] in a line: Inhibition of EGF-induced HGF production in HDF at 2 mg/ml after 72 hrs by ELISA. The note with it: Homo sapiens. Type of data set: functional. On the technique in general: In an ELISA, binding on a coated surface is turned into a signal by an enzyme label.
Data set [15] relates to K562. As to the kind of experiment: Induction of apoptosis in human K562 cells assessed as late apoptotic cells at 6.25 ug/ml by Annexin V/propidium iodide staining-based flow cytometry. Type of data set: functional. On the technique in general: Flow cytometry measures light scatter and fluorescence of single cells or particles in a stream.
Data set [16] deals with Rattus norvegicus. The experiment in a line: Anti-inflammatory activity in Wistar Han rat assessed as reduction in carrageenan-induced exudate volume at 10 mg/kg, po administered 1 hr prior to carrageenan challenge. The data set is classed as functional.
The subject of data set [17] is HL-60. As to the kind of experiment: Antiproliferative activity against human HL60 cells after 24 hrs. The data set is classed as functional, cell-based. The note with it: HL-60, 24 h.
Data set [18] concerns K562. As to the kind of experiment: Antiproliferative activity against human K562 cells after 24 hrs. The note with it: K562, 24 h. Type of data set: functional, cell-based.
The subject of data set [19] is K562. The experiment in a line: Antiproliferative activity against human K562 cells after 48 hrs. The note with it: K562, 48 h. Type of data set: functional, cell-based.
Data set [20] is described as follows: Inhibition of PMA-induced HGF production in HDF at 0.1 mg/ml after 24 hrs by ELISA. The data set is classed as functional. Particulars: Homo sapiens.
The test system of data set [21] is Rattus norvegicus. The experiment in a line: Anti-inflammatory activity in Wistar Han rat assessed as reduction of carrageenan-induced pleural LTB4 levels at 10 mg/kg, po administered 1 hr prior to carrageenan challenge by HPLC analysis. The data set is classed as functional.
The test system of data set [22] is MOLT-4. The experiment in a line: Antiproliferative activity against human MOLT4 cells after 48 hrs. Type of data set: functional, cell-based. The note with it: MOLT-4, 48 h.
The test system of data set [23] is K562. The experiment in a line: Induction of apoptosis in human K562 cells assessed as late apoptotic cells at 25 ug/ml by Annexin V/propidium iodide staining-based flow cytometry. Type of data set: functional.
For data set [24], the system named is HL-60. The experiment in a line: Antiproliferative activity against human HL60 cells after 48 hrs. The data set is classed as functional, cell-based.
The test system of data set [25] is MOLT-4. The experiment in a line: Antiproliferative activity against human MOLT4 cells after 24 hrs. Type of data set: functional, cell-based. The note with it: MOLT-4, 24 h.
Data set [26] concerns Rattus norvegicus. As to the kind of experiment: Anti-inflammatory activity in Wistar Han rat assessed as reduction of carrageenan-induced PGE2 levels at 10 mg/kg, po administered 1 hr prior to carrageenan challenge by radioimmunoassay. The data set is classed as functional.
Data set [27] addresses Indoleamine 2,3-dioxygenase 1 (Homo sapiens, UniProt P14902). The experiment in a line: Inhibition of IDO-1 (unknown origin).
A short description of data set [28]: Antiproliferative activity against spleen cells from SBP-immunized mouse assessed as fluorescence intensity at 5 uM after 3 days by Alamar blue dye-based method (reference value: 2781 +/- 59I). The data set is classed as functional, Spleen cell.
Data set [29] concerns K562. The experiment in a line: Induction of apoptosis in human K562 cells assessed as late apoptotic cells at 12.5 ug/ml by Annexin V/propidium iodide staining-based flow cytometry. The data set is classed as functional.
A short description of data set [30]: Antiproliferative activity against spleen cells from SBP-immunized mouse assessed as fluorescence intensity at 10 uM after 3 days by Alamar blue dye-based method (reference value: 2781 +/- 59I). Type of data set: functional, Spleen cell.
Data set [31] deals with T1, Polyunsaturated fatty acid 5-lipoxygenase (Homo sapiens, UniProt P09917).
T1 sequence (P09917 whole entry): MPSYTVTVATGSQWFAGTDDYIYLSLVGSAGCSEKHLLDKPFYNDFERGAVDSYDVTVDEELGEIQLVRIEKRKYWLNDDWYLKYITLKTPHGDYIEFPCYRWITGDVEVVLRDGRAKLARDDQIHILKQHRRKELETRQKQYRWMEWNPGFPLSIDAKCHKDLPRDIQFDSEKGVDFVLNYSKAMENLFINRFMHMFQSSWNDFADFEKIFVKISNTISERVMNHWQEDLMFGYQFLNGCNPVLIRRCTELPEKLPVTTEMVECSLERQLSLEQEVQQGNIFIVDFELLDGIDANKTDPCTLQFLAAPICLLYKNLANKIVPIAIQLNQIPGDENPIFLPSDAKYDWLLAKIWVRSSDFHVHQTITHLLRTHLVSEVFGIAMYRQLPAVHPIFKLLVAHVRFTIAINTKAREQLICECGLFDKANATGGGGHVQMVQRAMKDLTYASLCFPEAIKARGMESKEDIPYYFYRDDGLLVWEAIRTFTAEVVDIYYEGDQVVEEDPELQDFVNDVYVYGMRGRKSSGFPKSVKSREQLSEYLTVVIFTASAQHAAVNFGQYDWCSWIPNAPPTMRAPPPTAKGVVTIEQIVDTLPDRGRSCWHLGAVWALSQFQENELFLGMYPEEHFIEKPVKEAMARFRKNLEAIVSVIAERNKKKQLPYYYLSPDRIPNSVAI
As to the kind of experiment: Inhibition of 5-LO in fMLP-stimulated human neutrophils by HPLC analysis.

Data set [32] deals with K562. The experiment in a line: Antiproliferative activity against human K562 cells after 48 hrs by MTT staining-based method. The data set is classed as functional, cell-based. The note with it: K562, 48 h.
Data set [33] concerns the target T1, Polyunsaturated fatty acid 5-lipoxygenase. As to the kind of experiment: Inhibition of 5-LO in LPS-stimulated human neutrophils by HPLC analysis.

Converted amounts (≈) assume the structure as drawn. Structures can show the parent of a compound that is named as a salt. Bounds are passed on as bounds.

Sequence of Indoleamine 2,3-dioxygenase 1 (P14902 whole entry): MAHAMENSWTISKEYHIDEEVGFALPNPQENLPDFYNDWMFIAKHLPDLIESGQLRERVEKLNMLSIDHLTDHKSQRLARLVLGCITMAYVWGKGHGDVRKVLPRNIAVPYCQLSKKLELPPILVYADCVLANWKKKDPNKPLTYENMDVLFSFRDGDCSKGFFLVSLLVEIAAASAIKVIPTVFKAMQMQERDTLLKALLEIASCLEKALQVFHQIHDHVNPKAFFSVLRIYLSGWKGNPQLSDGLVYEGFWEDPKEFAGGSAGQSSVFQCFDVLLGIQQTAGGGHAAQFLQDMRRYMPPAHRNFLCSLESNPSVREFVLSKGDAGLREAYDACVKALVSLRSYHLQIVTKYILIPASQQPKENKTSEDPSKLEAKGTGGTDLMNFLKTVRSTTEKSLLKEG
Sequence of ATP-dependent translocase ABCB1 (P08183 whole entry): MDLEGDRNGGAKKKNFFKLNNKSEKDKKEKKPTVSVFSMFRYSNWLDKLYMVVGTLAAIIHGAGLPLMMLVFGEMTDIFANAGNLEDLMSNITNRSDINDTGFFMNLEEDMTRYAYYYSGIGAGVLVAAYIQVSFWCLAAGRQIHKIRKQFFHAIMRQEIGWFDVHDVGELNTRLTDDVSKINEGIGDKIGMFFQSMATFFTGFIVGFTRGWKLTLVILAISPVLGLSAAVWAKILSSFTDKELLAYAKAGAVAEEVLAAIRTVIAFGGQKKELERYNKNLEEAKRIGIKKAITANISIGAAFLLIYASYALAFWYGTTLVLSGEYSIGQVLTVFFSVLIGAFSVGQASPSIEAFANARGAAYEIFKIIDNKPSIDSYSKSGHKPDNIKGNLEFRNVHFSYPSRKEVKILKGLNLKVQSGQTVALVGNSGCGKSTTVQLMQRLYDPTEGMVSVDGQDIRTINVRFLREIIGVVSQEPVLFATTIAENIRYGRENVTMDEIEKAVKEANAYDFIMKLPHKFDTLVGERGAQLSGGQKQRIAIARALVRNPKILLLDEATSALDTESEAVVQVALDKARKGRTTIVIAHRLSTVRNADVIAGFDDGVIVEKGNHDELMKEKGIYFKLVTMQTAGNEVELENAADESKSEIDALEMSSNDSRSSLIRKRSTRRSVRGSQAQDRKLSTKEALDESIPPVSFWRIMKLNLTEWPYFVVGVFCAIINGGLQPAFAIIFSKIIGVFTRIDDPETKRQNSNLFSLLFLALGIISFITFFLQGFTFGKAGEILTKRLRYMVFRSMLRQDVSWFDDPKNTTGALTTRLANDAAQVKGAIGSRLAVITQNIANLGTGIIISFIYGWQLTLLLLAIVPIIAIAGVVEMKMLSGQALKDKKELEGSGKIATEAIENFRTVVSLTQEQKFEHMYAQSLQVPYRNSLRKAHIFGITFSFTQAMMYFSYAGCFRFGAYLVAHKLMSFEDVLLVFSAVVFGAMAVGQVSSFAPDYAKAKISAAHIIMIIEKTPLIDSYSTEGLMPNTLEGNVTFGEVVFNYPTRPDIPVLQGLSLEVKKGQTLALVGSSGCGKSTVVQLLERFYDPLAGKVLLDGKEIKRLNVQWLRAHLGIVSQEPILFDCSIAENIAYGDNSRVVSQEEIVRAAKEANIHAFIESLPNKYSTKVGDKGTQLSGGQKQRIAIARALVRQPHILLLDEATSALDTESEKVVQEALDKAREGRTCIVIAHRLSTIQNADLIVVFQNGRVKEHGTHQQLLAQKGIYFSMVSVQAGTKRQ

With `O=C1c2cc(F)ccc2-n2c1nc1ccccc1c2=O`, the MIC (usually the lowest concentration that inhibits growth of the organism) was 1 µg/mL (≈ 3.76 µM) in [1] and 0.1 µg/mL (≈ 0.376 µM) in [2].

Consider `O=C1c2ccccc2-n2c1nc1ccc(Cl)cc1c2=O`, for which the MIC in data set [1] came out at 4 µg/mL (≈ 14.1 µM); in data set [2] it was 0.1 µg/mL (≈ 0.354 µM).

Take `O=C1c2cc3ccccc3cc2-n2c1nc1ccccc1c2=O`: the IC50 (in general, the midpoint of a concentration-inhibition curve) lay within 0.27 to 12.1 µM in [3] and 0.16 to 9.82 µM in [8]. Further, the inhibition (in general, the percentage by which the read-out fell short of the control) in [4] came out at 30.7%; in data set [5] it was 43.4%; in [6], 47.2%. Besides, the Activity in data set [7] was 59%.

Regarding `COc1ccc2c(c1)C(=O)c1nc3ccccc3c(=O)n1-2`, the MIC is more than 120 µg/mL in data set [1] and 2.5 µg/mL (≈ 8.98 µM) in data set [2].

Turning to `O=C1c2ccccc2-n2c1nc1ccc([N+](=O)[O-])cc1c2=O`, the MIC in data set [1] is more than 160 µg/mL; in data set [2], more than 100 µg/mL.

In the case of `Nc1ccc2nc3n(c(=O)c2c1)-c1ccccc1C3=O`, the MIC worked out at 20 µg/mL (≈ 76 µM) in [1] and 2 µg/mL (≈ 7.6 µM) in data set [2].

Turning to `Cc1ccc2c(c1)C(=O)c1nc3ccccc3c(=O)n1-2`, the MIC in [1] was more than 120 µg/mL; in [2], 0.5 µg/mL (≈ 1.91 µM).

As to `COc1ccc(CCN(C)CCCC(C#N)(c2ccc(OC)c(OC)c2)C(C)C)cc1OC` (configuration not stated), in data set [7], the Activity came to 18.1%.

With `O=C1c2cc(Br)ccc2-n2c1nc1ccccc1c2=O`, the MIC in [1] was 2.5 µg/mL (≈ 7.64 µM); in data set [2], 0.1 µg/mL (≈ 0.306 µM).

For `O=C1c2ccccc2-n2c1nc1ccc(Br)cc1c2=O`, the MIC in data set [1] was 4 µg/mL (≈ 12.2 µM); in data set [2], 0.3 µg/mL (≈ 0.917 µM).

With `CO[C@@H]1[C@@H](OC(N)=O)[C@@H](O)[C@H](Oc2ccc3c(O)c(NC(=O)c4ccc(O)c(CC=C(C)C)c4)c(=O)oc3c2C)OC1(C)C`, the inhibition in data set [4] was found to be 38.5%; in data set [9], 45.9%; in [6], 60.2%.

For `COc1cccc2c1C(=O)c1c(O)c3c(c(O)c1C2=O)C[C@@](O)(C(=O)CO)C[C@@H]3O[C@H]1C[C@H](N)[C@H](O)[C@H](C)O1` [DOXORUBICIN HYDROCHLORIDE], the IC50 is 0.99 to 2.63 µM in [3] and more than 50 µM in data set [8]. The growth at 3000 µM was 3.9 to 24.1% in data set [10] and 0.44 to 78.2% in data set [11].

`COc1cccc2c1C(=O)c1c(O)c3c(c(O)c1C2=O)C[C@@](O)(C(=O)CO)C[C@@H]3O[C@H]1C[C@H](N)[C@H](O)[C@H](C)O1` [DOXORUBICIN]: in [12], the inhibition at 1 µM was determined as 20%.

For the molecule `O=C1c2ccccc2-n2c1nc1ccccc1c2=O` [TRYPTANTHRIN], the IC50 was 0.58 to 15.5 µM in data set [3]; 5 µM in data set [17]; 15 µM in data set [18]; 5 µM in data set [19]; 8 µM in data set [22]; 2 to 20000 µM in data set [24]. Moreover, the IC50 in [25] was 10 µM; in [27] it was 499 µM; in [31], 0.2 to 0.6 µM; in data set [8] it was 0.03 to 10 µM; in [32], 8.8 µg/mL (≈ 35.4 µM); in data set [33] it was 0.2 to 0.6 µM. For the same molecule, the inhibition in vivo (in general, how much of the control response was suppressed) at 10 mg/kg in data set [13] was found to be 41%; in data set [16] it was 80%; in data set [21], 46%; in [26], 42%. This molecule also yielded an inhibition at 2000 µg/mL in data set [14] of 70%. For the same molecule, the Activity in data set [15] was found to be 21.9%; in data set [23], 52.2%; in data set [29], 33.4%. In [20], this molecule yielded an inhibition at 100 µg/mL of 70%. For the same molecule, the MIC came out at 4 µg/mL (≈ 16.1 µM) in [1] and 0.5 µg/mL (≈ 2.01 µM) in data set [2]. In addition, the Flu intensity in [28] is 2826; in data set [30], 2740.

Molecule `N[C@@H](Cc1c[nH]c2ccccc12)C(=O)O` [TRYPTOPHAN] registered an IC50 in data set [27] of 499 µM.
